Laboratory results: patent EP2905024A1 (Institut Quimic De Sarriá Cets, Fundació Privada, priority 2014, dated 2015)

Columns and labels:
cytotoxicity assay (MTT) = format: cell-based; settings: human, Lunet/HuH7 cells, 2 days of incubation, mean of duplicates; for CC50 at 2 days: Huh-7/Lunet cells (cured HCV replicon cells); for CC50 at 48 h: huh-7/lunet cells
Excerpt: (§1) To analyze the antiviral activity of the compounds, we used a stable cell line, LucUbiNeo-ET, that contains a subgenomic HCV genotype 1b replicon, I389/NS3-3'/ LucUbiNeo-ET, that express luciferase constitutively (Krieger et al, JVI 2001; 75:4614; Frese et al., JGV 2003; 84: 1253-1259). To evaluate the cellular toxicity, we use other cell line, Huh-7/Lunet (Friebe et al., JVI 2005; 79: 380-392), that originally carried a selectable luciferase HCV 1b replicon and was cured by treatment with an HCV-specific inhibitor. These cells are characterized by high permissiveness for HCV RNA replication. LucUbiNeo-ET cell line was cultured at 37°C in a humidified atmosphere with 5% CO2 in Dulbecco's modified Eagle medium (D-MEM) supplemented with high glucose concentration (4.5g/l) (Invitrogen), 10% (vol/vol) heat-inactivated fetal bovine serum (Hyclone, Cultek), 2mM L-Glutamine (Sigma-aldrich), 1mM sodium pyruvate (Sigma-aldrich), 1% MEM NEEA (Sigma-aldrich), and 0.5 mg/ml of Geneticin (G418) (Gibco, Invitrogen). Cured or Huh-7/Lunet cell line was maintained at the same conditions as described above without the addition of Geneticin.
(§2) Antiviral activity was carried out in white-clear bottom 96-well plates, and cytotoxicity assays were performed in clear 96-well plates. Cells were seeded at a density of 10^4/well in 100ul D-MEM without selection of antibiotics. After 24h, nine fivefold serial dilution of compounds, with 3 replicates at each dilution, were prepared in D-MEM and added to the appropriate wells, yielding concentrations of 125 to 0,00032 ug/ml in a final volume of 100 ul of D-MEM. Following 2 days of incubation, we determined the antiviral activity (EC50) by quantifying the luciferase with the Luciferase Bright Glo assay (Promega). Briefly, LucUbiNeo-ET cells were harvested with the addition of 100 ul of luciferase per well, and after 2 minutes of shaking, the light was read in a Luminometer Fluoroskan Ascent FL. Toxicity (CC50) was analysed in the Lunet/HuH7 cells by the addition of 10 ul of MTT (3-(4,5-dimethylthiazol-2-yl)-2,5-diphenyltetrazolium bromide) per well. After 4h of incubation at 37°C in a humidified atmosphere with 5% CO2, the amount of formazan produced was quantified spectrophotometrically at 550/620 nm [C. Pannecouque et al, Nature protocol 2008; 3 (3): 427-434]. The EC50 and CC50 values were calculated for each compound. These assays were done in duplicate and the results shown in Table 1 represent the mean value of these duplicates.

[1] = test system: subgenomic HCV genotype 1b replicon, I389/NS3-3'/ LucUbiNeo-ET; test: in vitro antiviral activity: luciferase assay in LucUbiNeo-ET HCV replicon cells; format: cell-based; settings: Hepatitis C virus, 48 h, 2 days of incubation, luciferase readout, mean of duplicates
Excerpt: as §1, §2

Compound	CC50 at 2 days (cytotoxicity assay (MTT)) [µM]	EC50 [1] [µM]	CC50 at 48 h (cytotoxicity assay (MTT)) [µM]
CCCCCNc1nc(N)nc2[nH]c(=O)c(-c3c(Cl)cccc3Cl)cc12 [Example 28, 2-amino-6-(2,6-dichlorophenyl)-4-(pentylamino)pyrido[2,3-d]pyrimidine-7(8H)-one]	10 to 25	1 to 5	
CCCOCCNc1nc(N)nc2c1cc(-c1ccc(F)cc1)c(=O)n2C [Example 41, 2-amino-6-(4-fluorophenyl)-8-methyl-4-((2-propoxyethyl)amino)pyrido[2,3-d]pyrimidine-7(8H)-one]	≥ 25	1 to 5	
O=c1[nH]c2nc(Nc3ccccc3)[nH]c(=O)c2cc1-c1ccccc1 [Example 30, 6-phenyl-2-(phenylamino)pyrido[2,3-d]pyrimidine-4,7(3H,8H)-dione]	≥ 25	5 to 22	
CCCOCCNc1nc(N)nc2[nH]c(=O)c(-c3ccc(F)cc3)cc12 [Example 24, 2-amino-6-(4-fluorophenyl)-4-((2-propoxyethyl)amino) pyrido[2,3-d]pyrimidine-7(8H)-one]	≥ 25	1 to 5	
Nc1nc(Nc2ccccc2)nc2c1cc(-c1c(Cl)cccc1Cl)c(=O)n2CCO [Example 59, 4-amino-6-(2,6-dichlorophenyl)-8-(2-hydroxyethyl)-2-(phenylamino) pyrido[2,3-d]pyrimidine-7(8H)-one]	≥ 25	1 to 5	
CN1CCN(c2ccc(Nc3nc(N)c4cc(-c5c(Cl)cccc5Cl)c(=O)n(C)c4n3)cc2)CC1 [Example 61]	< 10	< 1	
COc1ccc(Nc2nc3[nH]c(=O)c(-c4ccc(F)cc4)cc3c(=O)[nH]2)cc1 [Example 31, 6-(4-fluorophenyl)-2-((4-methoxyphenyl)amino)pyrido[2,3-d]pyrimidine-4,7(3H,8H)-dione]	≥ 25	5 to 22	
Cn1c(=O)c(-c2c(Cl)cccc2Cl)cc2c(N)nc(N)nc21 [Example 52]		5 to 22	≥ 25
O=C1Nc2nc(Nc3ccccc3)nc(On3nnc4ccccc43)c2CC1c1ccc(F)cc1 (stereo not drawn) [Example 4]		1 to 5	10 to 25
